From patent US20050003007A1, “Method of sterilization of polymeric microparticles” (priority 2003, published 2005) come the findings set out here.

Structures are written as SMILES.

This assay relates to retinitis pigmentosa. Put plainly: Subconjunctival injection of tazarotene microsphere suspension into a patient suffering from retinitis pigmentosa. Format: in vivo. The following applies: tazarotene 1 mg in poly(lactide-co-glycolide) microsphere suspension, for the duration of treatment. The method, then: A dose of tazarotene (1 mg) contained in the poly(lactide-co-glycolide) microsphere suspension of Example containing 1 is injected subconjunctivally into a patient suffering from retinitis pigmentosa.

For the compound `CCOC(=O)c1ccc(C#Cc2ccc3c(c2)C(C)(C)CCS3)nc1` [tazarotene], the vision result is on record as “Maintenance of vision or a slowing of the progression of vision loss”.
